Tested on: L1210 leukemia cells
Assay: In vitro cytotoxic activity, growth inhibition test (colony growth), 48h treatment
Format: cell-based
Conditions: ratio of IC50 values versus compound 1
Procedure: 3'-Deamino-3",4'-anhydro-[2"(S)-methoxy-3"(R)-hydroxy-4"-morpholinyl]doxorubicin 2a was tested in vitro on L1210 leukemia cells in comparison with 3'-deamino-3'-[2"(S)-methoxy-4"-morpholinyl]doxorubicin (1). The cytotoxic activity is reported as IC50, the concentration inhibiting 50% of colony growth, calculated on concentration response curves. […]

With `COc1cccc2c1C(=O)c1c(O)c3c(c(O)c1C2=O)CC(O)(C(=O)CO)CC3OC1CC2C(OC3C(OC)OCCN23)C(C)O1` [Compound 2a, 3'-deamino-3"-4'-anhydro-[2"(S)-methoxy-3"(R)-hydroxy-4"-morpholinyl]doxorubicin] the “fold more potent than compound 1” value was 2.5x10^3 fold.
